Laboratory results: US12268689B2, “Eutectic form A of Elagolix and pyrimethamine, preparation method therefor and use thereof” (Shenzhen Rentai Pharmatech Ltd., priority 2019, dated 2025)
“Also recorded” adds a separate entry of the source.

Assays:
Type in all cases: physicochemical
[1] = High humidity stability test (25° C., 92.5% RH, 30 days; HPLC purity and XRPD)
Procedure: (§1) High humidity stability: samples of a raw drug of Elagolix sodium and an eutectic form A formed by Elagolix and pyrimethamine (prepared in Comparative example 1 and Example 1, respectively) were taken and separately placed at 25° C. at 92.5% RH for 30 days, sampling was conducted at fixed time points on day 5, day 10 and day 30, respectively to determine the XRPD pattern of the eutectic form A, and the content of the raw drug of Elagolix sodium and the eutectic form A, and the determined XRPD pattern of the eutectic form A, and the determined content of the raw drug of Elagolix sodium and the eutectic form A were compared with those on day 0.
(§2) The specific stability test method can refer to the method in Appendix XIC of Part II of Chinese Pharmacopoeia (2015 Edition); and the purity was detected by an HPLC method, and can be determined by an external standard method with reference to the method in Appendix VD of Chinese Pharmacopoeia (2015 Edition) by using the sample on day 0 as a control.
(§3) Operating Conditions for HPLC
(§4) • Instrument: high performance liquid chromatograph (model: Agilent Technologies 1260) • Chromatographic column: shiseido CAPCELL PAK C18 column (5 μm, 250 mm×4.6 mm) Mobile Phase Composition and Gradient Elution Procedure:
(§5) • Detection wavelength: 254 nm • Flow rate: 1 mL/min • Injection volume: 10 μL • Column temperature: 30° C.

[2] = Light stability test (25° C., 4500 Lux, 30 days; HPLC purity and XRPD); settings: light conditions
Procedure: as §1, with “Light stability: samples” for “High humidity stability: samples”, “25° C. under light conditions of 4500 Lux for 30” for “25° C. at 92.5% RH for 30”, “content of Elagolix in the raw” for “content of the raw”
as §2, §3
• Instrument: high performance liquid chromatograph (model: Agilent Technologies 1260) • Chromatographic column: shiseido CAPCELL PAK C18 column (5 μm, 250 mm×4.6 mm) Mobile Phase Composition and Gradient Elution Procedure: […]

[3] = High temperature stability test (60° C., 30 days; HPLC purity and XRPD)
Procedure: as §1, with “temperature” for “humidity”, “60°” for “25°”, “C.” for “C. at 92.5% RH”
as §2, §3, §4, §5

COc1cccc(-c2c(C)n(Cc3c(F)cccc3C(F)(F)F)c(=O)n(C[C@H](NCCCC(=O)O)c3ccccc3)c2=O)c1F [Elagolix sodium]
not good; also recorded: unstable: High humidity stability (in words) [1] | Light stability (in words) [2] | High temperature stability (in words) [3]
